The subject of one data set is ICR mice. In words: Acute toxicity experiment of single oral administration in mice. The format is in vivo. The settings on record: 1000 mg/Kg single oral dose. As to the method: The mice were fasted one day before the experiment. On the day of the experiment, 6 mice (ICR mice, body weight of 19-21 g, three females and three males) were selected in each experiment group. First of all, one female and one male were selected to orally give 1000 mg/Kg, and observed for 5-10 minutes. If there were no obvious side effects, the remaining 4 animals were orally given the same dose, and observed for 10-15 minutes. If no animal died, the animals were placed in a box to balancedly feed for 7 days. The state was observed and the body weight was recorded daily.
Observation Indexes within 0-15 Minutes After Administration
Activity: restlessness, hyperactivity
Nervous system response: tremor, spasm, convulsion, ataxia, posture abnormality, etc.
Autonomic nerve: exophthalmos, salivation, tears, urination (hematuria), diarrhea, piloerection, breathing, etc.
Observation Indexes Over 7 Days
State of Animal: lethargy, hyperactivity, excitement, hair loss, diarrhea, abnormal behavior, death, etc.

Data set [1] deals with DSS-Induced inflammatory Bowel Disease Models in Mice. In words: DSS-induced inflammatory bowel disease model in mice (Biological Example 3, 1.0-1.5% DSS). The format is in vivo, C57BL/6 mice. The settings on record: 30 mg/Kg i.g. Q.D; for Average Length of Colon (Mean ± SD) / Inhibitory Rate of Colonic Reduction: DSS 1.0% days 0-4, 1.5% days 5-9. As to the method: (§1) 40 healthy female C57BL/6 mice having weight of 16-19 g were randomly divided into 4 groups in accordance with weight. There were 10 mice in each group (see Table 6 below). The first day of the experiment was recorded as Day 0. The administration regimen and induction regimen were detailed in Table 6. The change in weight of experimental animals was recorded every day. […] Samples of animal colonic tissues were obtained to measure the length. One-way ANOVA analysis of mice weights was performed by SPSS22. Statistical analyses between groups were performed. Mann-Whitney U non-parametric test was performed on the length of colon.
(§2) Calculation Formula of Inhibitory Rate of Colonic Reduction: (Length of Colon in Administration Group−Length of Colon in Model Group)/(Length of Colon in Blank Group−Length of Colon in Model Group)

For data set [2] the test system is unchanged. The experiment in a line: DSS-induced inflammatory bowel disease model in mice (Biological Example 5, 1.3% DSS). The format is in vivo, C57BL/6 mice. The settings on record: 30 mg/Kg i.g. Q.D, 1.3% DSS days 0-5; for inhibition in vivo at 30 mg/kg: Mus musculus, po, read-out: Inhibitory Rate of Colonic Reduction. The procedure:
as §1
The experimental method used in the present biological example is identical to those in Biological Example 3.
One-way ANOVA analysis of mice body weights and colonic weights per length was performed by SPSS22. Statistical analyses between groups were performed.
as §2

For the molecule `COCCN1C(=O)CCC(N2C(=O)c3cccc(F)c3C2=O)C1=O` (stereo not shown) [Example 4, 4-fluoro-2-(1-(2-methoxyethyl)-2,6-dioxopiperidin-3-yl)isoindolin-1,3-dione], the “Daily Body Weight of Tested Female Mice (Mean ± SD)” value with ICR mice (Day 1) is on record as 18.4 ± 0.4 g; with ICR mice (Day 2), 21.8 ± 0.5 g; in the data set on ICR mice (Day 3), 23.2 ± 0.6 g; in the data set on ICR mice (Day 4), 23.5 ± 1.2 g; with ICR mice (Day 5), 24.7 ± 0.9 g; in the data set on ICR mice (Day 6) it was 24.2 ± 1.2 g. The “Daily Body Weight of Tested Female Mice (Mean ± SD)” value in the data set on ICR mice (Day 7) is recorded as 24.0 ± 0.8 g. Further, the “Daily Body Weight of Tested Male Mice (Mean ± SD)” value in the data set on ICR mice (Day 1) was 17.6 ± 0.2 g; in the data set on ICR mice (Day 2), 22.2 ± 0.3 g; in the data set with ICR mice (Day 3), 23.6 ± 0.6 g; in the data set on ICR mice (Day 4), 24.7 ± 0.6 g; in the data set on ICR mice (Day 5) it was 26.7 ± 0.4 g; in the data set on ICR mice (Day 6) it was 27.6 ± 0.8 g. Further, the “Daily Body Weight of Tested Male Mice (Mean ± SD)” value in the data set with ICR mice (Day 7) turned out to be 28.2 ± 0.1 g. Further, the “body weights compared with model control group” value in data set [1] is “higher than that of the model control group”. In addition, the “Average Length of Colon (Mean ± SD)” value in data set [1] is recorded as 6.3 ± 0.3 cm. Also, the “Inhibitory Rate of Colonic Reduction” value in data set [1] came out at 54.5%. The “Body Weights of Experimental Mice (Mean ± SD)” value (shortened to “Body Weights … (Mean ± SD)”) in data set [1] (Day 0) is recorded as 17.4 ± 1.3 g; in data set [1] (Day 1), 17.6 ± 1.1 g; in data set [1] (Day 2), 18.0 ± 0.9 g; in data set [1] (Day 3) it was 17.8 ± 1.0 g; in data set [1] (Day 4), 17.9 ± 0.9 g; in data set [1] (Day 5), 18.1 ± 1.1 g. In addition, the “Body Weights … (Mean ± SD)” value in data set [1] (Day 6) is 17.7 ± 0.9 g; in data set [1] (Day 7), 18.1 ± 0.9 g; in data set [1] (Day 8) it was 17.8 ± 0.8 g; in data set [1] (Day 9) it was 17.6 ± 0.8 g; in data set [1] (Day 10), 17.0 ± 0.7 g; in data set [1] (Day 11), 16.7 ± 0.7 g. In addition, the “Body Weights … (Mean ± SD)” value in data set [1] (Day 12) was 17.0 ± 0.9 g.
Turning to `COCCN1C(=O)CCC(N2C(=O)c3ccc(N)cc3C2=O)C1=O` (stereo not shown) [Example 7, 5-amino-2-(1-(2-methoxyethyl)-2,6-dioxopiperidin-3-yl)isoindolin-1,3-dione], the “body weights compared with model control group” value in data set [1] is listed as “higher than that of the model control group”. In addition, the “Average Length of Colon (Mean ± SD)” value in data set [1] is given as 6.4 ± 0.4 cm. Further, in data set [1], the “Inhibitory Rate of Colonic Reduction” value was found to be 63.6%. Also, the “Body Weights … (Mean ± SD)” value in data set [1] (Day 0) was 17.4 ± 0.8 g; in data set [1] (Day 1) it was 17.5 ± 0.7 g; in data set [1] (Day 2), 18.2 ± 0.8 g; in data set [1] (Day 3) it was 17.8 ± 0.8 g; in data set [1] (Day 4) it was 17.7 ± 0.7 g; in data set [1] (Day 5), 17.9 ± 0.8 g. Besides, the “Body Weights … (Mean ± SD)” value in data set [1] (Day 6) is 17.8 ± 0.8 g; in data set [1] (Day 7), 17.9 ± 0.8 g; in data set [1] (Day 8) it was 17.4 ± 0.7 g; in data set [1] (Day 9), 17.4 ± 0.7 g; in data set [1] (Day 10), 16.8 ± 0.9 g; in data set [1] (Day 11) it was 16.8 ± 1.0 g. Also, the “Body Weights … (Mean ± SD)” value in data set [1] (Day 12) worked out at 17.3 ± 1.0 g.
In the case of `C[S+]([O-])CCN1C(=O)CCC(N2C(=O)c3cccc(N)c3C2=O)C1=O` (stereo not shown) [Example 12, 4-amino-2-(1-(2-methylsulfinylethyl)-2,6-dioxopiperidin-3-yl)isoindolin-1,3-dione], the “Daily Body Weight of Tested Female Mice (Mean ± SD)” value in the data set with ICR mice (Day 1) was 18.7 ± 0.7 g; in the data set on ICR mice (Day 2), 21.8 ± 0.6 g; with ICR mice (Day 3), 22.6 ± 0.1 g; in the data set on ICR mice (Day 4), 22.6 ± 0.0 g; in the data set on ICR mice (Day 5), 23.7 ± 0.6 g; with ICR mice (Day 6), 25.3 ± 1.0 g. Further, the “Daily Body Weight of Tested Female Mice (Mean ± SD)” value with ICR mice (Day 7) was 25.7 ± 1.6 g. The “Daily Body Weight of Tested Male Mice (Mean ± SD)” value worked out at 18.5 ± 0.2 g in the data set on ICR mice (Day 1); 24.3 ± 0.6 g in the data set on ICR mice (Day 2); 24.9 ± 0.1 g with ICR mice (Day 3); 24.9 ± 0.1 g in the data set on ICR mice (Day 4); 26.1 ± 0.7 g in the data set with ICR mice (Day 5); 27.8 ± 0.7 g in the data set with ICR mice (Day 6). Also, in the data set on ICR mice (Day 7), the “Daily Body Weight of Tested Male Mice (Mean ± SD)” value amounted to 28.5 ± 0.7 g. The “Summary of toxic response of tested animals in 7 Days” value in the data set on ICR mice (Female) and in the data set on ICR mice (Male) was “Abnormality was not observed in 7 days of the test” each time. Besides, the “Length (cm, Mean ± SD) of colon” value in data set [2] was determined as 7.0 ± 0.5 cm. For the same molecule, the inhibition in vivo at 30 mg/kg in data set [2] came to 109%.
`CS(=O)(=O)CCN1C(=O)CCC(N2C(=O)c3cccc(N)c3C2=O)C1=O` (stereo not shown) [Example 13, 4-amino-2-(1-(2-methylsulfonylethyl)-2,6-dioxopiperidin-3-yl)isoindolin-1,3-dione]: the “Daily Body Weight of Tested Female Mice (Mean ± SD)” value in the data set with ICR mice (Day 1) amounted to 18.8 ± 1.1 g; in the data set on ICR mice (Day 2), 21.3 ± 0.3 g; with ICR mice (Day 3), 21.8 ± 0.4 g; in the data set on ICR mice (Day 4), 21.8 ± 0.4 g; in the data set on ICR mice (Day 5), 23.0 ± 0.5 g; in the data set on ICR mice (Day 6) it was 23.2 ± 0.9 g. Besides, in the data set on ICR mice (Day 7), the “Daily Body Weight of Tested Female Mice (Mean ± SD)” value came to 23.6 ± 0.9 g. In addition, the “Daily Body Weight of Tested Male Mice (Mean ± SD)” value in the data set on ICR mice (Day 1) amounted to 19.6 ± 0.7 g; in the data set on ICR mice (Day 2) it was 23.1 ± 0.6 g; with ICR mice (Day 3), 24.4 ± 0.9 g; in the data set with ICR mice (Day 4), 24.4 ± 0.9 g; with ICR mice (Day 5), 26.5 ± 0.5 g; in the data set with ICR mice (Day 6) it was 28.3 ± 1.3 g. Besides, the “Daily Body Weight of Tested Male Mice (Mean ± SD)” value in the data set on ICR mice (Day 7) turned out to be 28.4 ± 0.8 g. In addition, the “Summary of toxic response of tested animals in 7 Days” value in the data set on ICR mice (Female) and with ICR mice (Male) was “Abnormality was not observed in 7 days of the test” each time. Besides, the “Length (cm, Mean ± SD) of colon” value in data set [2] is given as 6.9 ± 0.4 cm. The inhibition in vivo at 30 mg/kg in data set [2] was found to be 100%.
In the case of `COCCN1C(=O)CCC(C)(N2C(=O)c3cccc(N)c3C2=O)C1=O` (stereo not shown) [Example 15, 4-amino-2-(1-(2-methoxyethyl)-3-methyl-2,6-dioxopiperidin-3-yl)isoindolin-1,3-dione], in data set [2], the “Length (cm, Mean ± SD) of colon” value was found to be 6.6 ± 0.4 cm and the inhibition in vivo at 30 mg/kg amounted to 72.7%.
The matching figures for `COCCN1C(=O)CCC(N2C(=O)c3ccc(F)cc3C2=O)C1=O` (stereo not shown) [Example 21, 5-fluoro-2-(1-(2-methoxyethyl)-2,6-dioxopiperidin-3-yl)-isoindolin-1,3-dione]: 6.9 ± 0.4 cm and 100%.
The corresponding values for `COCCN1C(=O)CCC(N2C(=O)c3ccc(OC)c(N)c3C2=O)C1=O` (stereo not shown) [Example 25, 4-amino-5-methoxy-2-(1-(2-methoxyethyl)-2,6-dioxopiperidin-3-yl)-isoindolin-1,3-dione] are 6.7 ± 0.5 cm and 81.8%.
